Assay results as given in patent publication US12404279B2, “Deubiquitinase inhibitors and methods of use thereof” (Molecure S.A., priority 2021, dated 2025).
Where a name gives a salt, the structure may show the parent alone. Read-outs that look alike come from different tables or passages of the source.

Biological target: full-length USP7 (Homo sapiens (Human), UniProt Q93009)
Assay: Enzymatic assay to determine IC50 of USP7 inhibitors (Ubiquitin-Rhodamine 110 cleavage)
Format: biochemical
Conditions: for inhibition at 1 µM: read-out: percent value of inhibition of USP7 activity; for IC50: 0.5 nM USP7, 0.5 μM Ubiquitin-Rhodamine 110, 45 min at 37° C.
Method: For the inhibitors disclosed herein, their potency was measured using the following method.
A 45 μl reaction volume containing full-length USP7 (0.5 nM) in 50 mM HEPES pH 7.5, 150 mM NaCl, 1 mM DTT, 1 mg/ml BSA and 0.05% Tween20 was assembled in wells of 96 well half area black flat bottom plates. Test compounds were first dissolved to 25 mM stocks in DMSO and subsequently introduced to enzyme 15 min after USP7 incubation with DTT at room temperature. The enzymatic reaction was started by adding 0.5 μM Ubiquitin-Rhodamine 110 (final concentration) and allowed to proceed for 45 min at 37° C., 250 RPM shaking before Rhodamine fluorescence (485 nm excitation/520 nm emission) was measured using Tecan Spark M10 plate reader.

[1] = at 1 μM of the test compound, given where IC50 not determined yet

Sequence of full-length USP7 (Q93009 whole entry): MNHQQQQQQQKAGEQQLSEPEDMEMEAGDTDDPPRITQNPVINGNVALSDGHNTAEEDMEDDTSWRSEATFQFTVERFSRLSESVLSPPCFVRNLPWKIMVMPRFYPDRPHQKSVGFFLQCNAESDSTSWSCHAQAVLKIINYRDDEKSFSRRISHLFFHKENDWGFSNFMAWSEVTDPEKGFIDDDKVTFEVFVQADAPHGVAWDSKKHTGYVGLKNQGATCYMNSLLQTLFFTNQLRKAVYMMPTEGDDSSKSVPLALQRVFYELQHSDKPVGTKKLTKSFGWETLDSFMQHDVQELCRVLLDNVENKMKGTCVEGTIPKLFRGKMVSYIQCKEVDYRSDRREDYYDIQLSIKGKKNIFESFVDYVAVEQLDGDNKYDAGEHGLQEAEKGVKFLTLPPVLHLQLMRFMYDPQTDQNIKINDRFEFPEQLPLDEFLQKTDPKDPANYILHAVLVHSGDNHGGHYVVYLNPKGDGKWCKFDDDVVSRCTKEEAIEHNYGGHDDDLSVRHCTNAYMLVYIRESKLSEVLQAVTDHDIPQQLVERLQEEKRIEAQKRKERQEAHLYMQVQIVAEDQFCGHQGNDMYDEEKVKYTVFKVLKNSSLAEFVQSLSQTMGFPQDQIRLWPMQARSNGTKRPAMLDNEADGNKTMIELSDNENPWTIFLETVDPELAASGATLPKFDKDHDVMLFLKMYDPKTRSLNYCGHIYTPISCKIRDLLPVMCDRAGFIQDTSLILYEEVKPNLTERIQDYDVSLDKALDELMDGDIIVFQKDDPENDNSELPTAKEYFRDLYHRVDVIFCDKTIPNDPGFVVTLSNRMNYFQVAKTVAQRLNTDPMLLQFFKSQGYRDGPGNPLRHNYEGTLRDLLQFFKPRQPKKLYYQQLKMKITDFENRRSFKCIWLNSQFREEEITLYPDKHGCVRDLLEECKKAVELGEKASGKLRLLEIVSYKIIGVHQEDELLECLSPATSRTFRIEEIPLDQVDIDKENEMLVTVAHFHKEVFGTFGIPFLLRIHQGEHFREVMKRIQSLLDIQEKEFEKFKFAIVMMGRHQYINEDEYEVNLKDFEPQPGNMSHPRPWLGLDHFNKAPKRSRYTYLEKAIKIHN

For `CC1(C)C2C(=O)N(Cc3cc4nccc(-c5cc(C(F)(F)F)n(CC6CNCCO6)n5)c4s3)C(=O)C21` (stereo not drawn) [Example 6, 6,6-dimethyl-3-((7-(1-(morpholin-2-ylmethyl)-5-(trifluoromethyl)-1H-pyrazol-3-yl)thieno[3,2-b]pyridin-2-yl)methyl)-3-azabicyclo[3.1.0]hexane-2,4-dione 2,2,2-trifluoroacetate], the inhibition at 1 µM was less than 20%.
With `CC1(C)C2C(=O)N(Cc3cc4nccc(-c5cc(C(F)(F)F)nn5CC5CNCCO5)c4s3)C(=O)C21` (stereo not drawn) [Example 7, 6,6-dimethyl-3-((7-(1-(morpholin-2-ylmethyl)-3-(trifluoromethyl)-1H-pyrazol-5-yl)thieno[3,2-b]pyridin-2-yl)methyl)-3-azabicyclo[3.1.0]hexane-2,4-dione 2,2,2-trifluoroacetate] the inhibition at 1 µM was less than 20%.
Molecule `Cc1nc(C#N)cc(-c2ccnc3cc(CN4C(=O)C5C(C4=O)C5(C)C)sc23)c1C(=O)N1CC[C@@H](N)C1` (stereo partly drawn) [Example 8, 5-((R)-3-aminopyrrolidine-1-carbonyl)-4-(2-((6,6-dimethyl-2,4-dioxo-3-azabicyclo[3.1.0]hexan-3-yl)methyl)thieno[3,2-b]pyridin-7-yl)-6-methylpicolinonitrile 2,2,2-trifluoroacetate] has an IC50 of 0.5 to 1 µM.
For `CC1(C)C2C(=O)N(Cc3cc4nccc(-c5cccn5CC5CNCCO5)c4s3)C(=O)C21` (stereo not drawn) [Example 9, 6,6-dimethyl-3-((7-(1-(morpholin-2-ylmethyl)-1H-pyrrol-2-yl)thieno[3,2-b]pyridin-2-yl)methyl)-3-azabicyclo[3.1.0]hexane-2,4-dione 2,2,2-trifluoroacetate], the inhibition at 1 µM was less than 20%.
In the case of `Cc1nc(C#N)cc(-c2ccnc3cc(CN4C(=O)C5C(C4=O)C5(C)C)sc23)c1C(=O)N1CCC(F)(F)C1` (stereo not drawn) [Example 10, 5-(3,3-difluoropyrrolidine-1-carbonyl)-4-(2-((6,6-dimethyl-2,4-dioxo-3-azabicyclo[3.1.0]hexan-3-yl)methyl)thieno[3,2-b]pyridin-7-yl)-6-methylpicolinonitrile 2,2,2-trifluoroacetate], the IC50 is reported as 1 to 10 µM.
`Cc1nc(C#N)cc(-c2ccnc3cc(CN4C(=O)C5C(C4=O)C5(C)C)sc23)c1C(=O)N1CC[C@H](O)C1` (stereo partly drawn) [Example 11, 4-(2-((6,6-dimethyl-2,4-dioxo-3-azabicyclo[3.1.0]hexan-3-yl)methyl)thieno[3,2-b]pyridin-7-yl)-5-((S)-3-hydroxypyrrolidine-1-carbonyl)-6-methylpicolinonitrile 2,2,2-trifluoroacetate] gave an IC50 of less than 0.5 µM.
`Cc1nc(C#N)cc(-c2ccnc3cc(CN4C(=O)C5C(C4=O)C5(C)C)sc23)c1C(=O)N1CC[C@@H](O)C1` (stereo partly drawn) [Example 12, 4-(2-((6,6-dimethyl-2,4-dioxo-3-azabicyclo[3.1.0]hexan-3-yl)methyl)thieno[3,2-b]pyridin-7-yl)-5-((R)-3-hydroxypyrrolidine-1-carbonyl)-6-methylpicolinonitrile 2,2,2-trifluoroacetate] showed an IC50 of 0.5 to 1 µM.
Molecule `Cc1nc(C#N)cc(-c2ccnc3cc(CN4C(=O)C5C(C4=O)C5(C)C)sc23)c1C(=O)N1CCC(F)(F)CC1` (stereo not drawn) [Example 13, 5-(4,4-difluoropiperidine-1-carbonyl)-4-(2-((6,6-dimethyl-2,4-dioxo-3-azabicyclo[3.1.0]hexan-3-yl)methyl)thieno[3,2-b]pyridin-7-yl)-6-methylpicolinonitrile 2,2,2-trifluoroacetate] has an inhibition at 1 µM [1] of 20 to 49%.
With `Cc1nc(C#N)cc(-c2ccnc3cc(CN4C(=O)C5C(C4=O)C5(C)C)sc23)c1C(=O)NC1CC(F)(F)C1` (stereo not drawn) [Example 14, 6-cyano-N-(3,3-difluorocyclobutyl)-4-(2-((6,6-dimethyl-2,4-dioxo-3-azabicyclo[3.1.0]hexan-3-yl)methyl)thieno[3,2-b]pyridin-7-yl)-2-methylnicotinamide 2,2,2-trifluoroacetate] the inhibition at 1 µM was less than 20%.
`Cc1nc(C#N)cc(-c2ccnc3cc(CN4C(=O)C5C(C4=O)C5(C)C)sc23)c1C(=O)N1CC[C@H](N)C1` (stereo partly drawn) [Example 15, 5-((S)-3-aminopyrrolidine-1-carbonyl)-4-(2-((6,6-dimethyl-2,4-dioxo-3-azabicyclo[3.1.0]hexan-3-yl)methyl)thieno[3,2-b]pyridin-7-yl)-6-methylpicolinonitrile 2,2,2-trifluoroacetate] showed an IC50 of less than 0.5 µM.
`Cc1nc(C#N)cc(-c2ccnc3cc(CN4C(=O)C5C(C4=O)C5(C)C)sc23)c1C(=O)NC1CNC1` (stereo not drawn) [Example 16, N-(azetidin-3-yl)-6-cyano-4-(2-((6,6-dimethyl-2,4-dioxo-3-azabicyclo[3.1.0]hexan-3-yl)methyl)thieno[3,2-b]pyridin-7-yl)-2-methylnicotinamide hydrochloride] was tested, and the inhibition at 1 µM [1] was 20 to 49%.
`Cc1nc(C#N)cc(-c2ccnc3cc(CN4C(=O)C5C(C4=O)C5(C)C)sc23)c1C(=O)N1CCNCC1` (stereo not drawn) [Example 17, 4-(2-((6,6-dimethyl-2,4-dioxo-3-azabicyclo[3.1.0]hexan-3-yl)methyl)thieno[3,2-b]pyridin-7-yl)-6-methyl-5-(piperazine-1-carbonyl)picolinonitrile hydrochloride] showed an IC50 of 0.5 to 1 µM.
Molecule `Cc1cc(C(F)(F)F)nc(-c2ccnc3cc(CN4C(=O)C5C(C4=O)C5(C)C)sc23)c1NC1CCNC1` (stereo not drawn) [Example 18, 6,6-dimethyl-3-((7-(4-methyl-3-(pyrrolidin-3-ylamino)-6-(trifluoromethyl)pyridin-2-yl)thieno[3,2-b]pyridin-2-yl)methyl)-3-azabicyclo[3.1.0]hexane-2,4-dione 2,2,2-trifluoroacetate] has an IC50 of less than 0.5 µM.
With `Cc1nc(C#N)cc(-c2ccnc3cc(CN4C(=O)C5C(C4=O)C5(C)C)sc23)c1C(=O)N1CC(F)(F)C1` (stereo not drawn) [Example 19, 5-(3,3-difluoroazetidine-1-carbonyl)-4-(2-((6,6-dimethyl-2,4-dioxo-3-azabicyclo[3.1.0]hexan-3-yl)methyl)thieno[3,2-b]pyridin-7-yl)-6-methylpicolinonitrile 2,2,2-trifluoroacetate] the IC50 was 0.5 to 1 µM.
For `Cc1cc(C#N)nc(-c2ccnc3cc(CN4C(=O)C5C(C4=O)C5(C)C)sc23)c1NC1CCNC1` (stereo not drawn) [Example 20, 6-(2-((6,6-dimethyl-2,4-dioxo-3-azabicyclo[3.1.0]hexan-3-yl)methyl)thieno[3,2-b]pyridin-7-yl)-4-methyl-5-(pyrrolidin-3-ylamino)picolinonitrile dihydrochloride], the IC50 was less than 0.5 µM.
`Cc1nc(C(F)(F)F)cc(-c2ccnc3cc(CN4C(=O)C5C(C4=O)C5(C)C)sc23)c1O[C@H]1CCNC1` (stereo partly drawn) [Example 22] gave an IC50 of 0.5 to 1 µM.
Work on `Cc1nc(C(F)(F)F)cc(-c2ccnc3cc(CN4C(=O)C5C(C4=O)C5(C)C)sc23)c1O[C@H]1CCCNC1` (stereo partly drawn) [Example 23, 6,6-dimethyl-3-((7-(2-methyl-3-(((S)-piperidin-3-yl)oxy)-6-(trifluoromethyl)pyridin-4-yl)thieno[3,2-b]pyridin-2-yl)methyl)-3-azabicyclo[3.1.0]hexane-2,4-dione 2,2,2-trifluoroacetate] yielded an IC50 of less than 0.5 µM.
Molecule `Cc1cc(C#N)nc(-c2ccnc3cc(CN4C(=O)C5C(C4=O)C5(C)C)sc23)c1NC1CNC1` (stereo not drawn) [Example 24, 5-(azetidin-3-ylamino)-6-(2-((6,6-dimethyl-2,4-dioxo-3-azabicyclo[3.1.0]hexan-3-yl)methyl)thieno[3,2-b]pyridin-7-yl)-4-methylpicolinonitrile 2,2,2-trifluoroacetate] has an IC50 of less than 0.5 µM.
`Cc1nc(C#N)cc(-c2ccnc3cc(CN4C(=O)C5C(C4=O)C5(C)C)sc23)c1NC1CCNC1` (stereo not drawn) [Example 26, 4-(2-((6,6-dimethyl-2,4-dioxo-3-azabicyclo[3.1.0]hexan-3-yl)methyl)thieno[3,2-b]pyridin-7-yl)-6-methyl-5-(pyrrolidin-3-ylamino)picolinonitrile 2,2,2-trifluoroacetate] showed an IC50 of less than 0.5 µM.
With `Cc1nc(C#N)cc(-c2ccnc3cc(CN4C(=O)C5C(C4=O)C5(C)C)sc23)c1NC(=O)C1CCN1` (stereo not drawn) [Example 27, N-(6-cyano-4-(2-((6,6-dimethyl-2,4-dioxo-3-azabicyclo[3.1.0]hexan-3-yl)methyl)thieno[3,2-b]pyridin-7-yl)-2-methylpyridin-3-yl)azetidine-2-carboxamide 2,2,2-trifluoroacetate] the inhibition at 1 µM was less than 20%.
Work on `Cc1nc(Cl)cc(-c2ccnc3cc(CN4C(=O)C5C(C4=O)C5(C)C)sc23)c1NC(=O)C1CNC1` (stereo not drawn) [Example 29, N-(6-chloro-4-(2-((6,6-dimethyl-2,4-dioxo-3-azabicyclo[3.1.0]hexan-3-yl)methyl)thieno[3,2-b]pyridin-7-yl)-2-methylpyridin-3-yl)azetidine-3-carboxamide 2,2,2-trifluoroacetate] yielded an IC50 of less than 0.5 µM.
In the case of `Cc1nc(C#N)cc(-c2ccnc3cc(CN4C(=O)C5C(C4=O)C5(C)C)sc23)c1NC(=O)C1CNC1` (stereo not drawn) [Example 30, N-(6-cyano-4-(2-((6,6-dimethyl-2,4-dioxo-3-azabicyclo[3.1.0]hexan-3-yl)methyl)thieno[3,2-b]pyridin-7-yl)-2-methylpyridin-3-yl)azetidine-3-carboxamide 2,2,2-trifluoroacetate], the IC50 is reported as less than 0.5 µM.
For `Cc1cc(Cl)cc(-c2ccnc3sccc23)c1O[C@H]1CCCNC1` [Example 31, (S)-4-(5-chloro-3-methyl-2-(piperidin-3-yloxy)phenyl)thieno[2,3-b]pyridine 2,2,2-trifluoroacetate], the IC50 was 1 to 10 µM.
Work on `Cc1nc(C(F)(F)F)cc(-c2ccnc3cc(CN4C(=O)C5C(C4=O)C5(C)C)sc23)c1NC(=O)CN1CC(F)(F)C1` (stereo not drawn) [Example 32, 2-(3,3-difluoroazetidin-1-yl)-N-(4-(2-((6,6-dimethyl-2,4-dioxo-3-azabicyclo[3.1.0]hexan-3-yl)methyl)thieno[3,2-b]pyridin-7-yl)-2-methyl-6-(trifluoromethyl)pyridin-3-yl)acetamide 2,2,2-trifluoroacetate] yielded an inhibition at 1 µM of less than 20%.
